Two compounds from patent publication US11613552B2, “Pharmaceutical agents, compositions, and methods relating thereto” (Alltech, Inc., priority 2017, dated 2023) can be followed below.

Common to all, as to format: cell-based, mouse
For one test, the system named is Insrβ/Pdk1/Akt/AS160. Kind of test: Western blot of Insrβ/Akt/AS160 phosphorylation in differentiated C2C12 cells. The settings on record: for pInsrβ levels: 200 nM insulin or 600 ppb Compound #43, prolonged treatment 60 minutes. As to the method:
To differentiate the C2C12 cells, equal number of these myoblast cells were firstly seeded on 12-well plates (60,000 cells/well) and cultured in 10% FBS DMEM media at 37° C. for 5 days. These cells were replenished daily with fresh 10% FBS DMEM media. At day 5 after the culture, C2C12 cells were differentiated using 0.5% horse serum (Sigma)-containing DMEM media (differentiation media) for 7 days with daily replacement of fresh differentiation media, similar to previous described (Misu et al, Cell Metabolism 12, 483-495, 2010). At day 7 after the differentiation, differentiated C2C12 cells were rinsed with PBS twice and incubated in serum-free DMEM media overnight. Then these serum-starved cells were treated without (basal) or with insulin (200 nM), Compound #43 (600 ppb), or both insulin and Compound #43 in serum-free DMEM media at 37° C. for 5 and 60 minutes.
After the above treatments, cultured HepG2 cells or differentiated C2C12 cells were rinsed twice with ice-cold PBS and lysed in ice-cold RIPA buffer containing complete proteinase and phosphatase inhibitors (Thermo-Fisher Scientific, Waltham, Mass.) on ice for 30 min. Cell lysates were collected using a cell scraper and transfer pipette, and then centrifuged at 12000×g for 30 min at 4° C. to remove the DNA pellet and obtain the protein extract. Protein levels in the supernatant of these cell lysates were determined using the Pierce Micro-BCA protein assay kit (Thermo Scientific-Piece Biotechnology, Rockford, Ill.) according to the manufacturer's protocol.
One hundred micrograms of skeletal muscle or liver tissue proteins, five micrograms of HepG2 cell protein extracts, or eight micrograms of differentiated C2C12 cell protein extracts were subjected to SDS-PAGE gel separation and then transferred to PVDF membranes, as described previously (Reddy et al. 2008 Science). Membranes were blocked in a phosphate-buffered saline (PBS) containing 5% (w/v) of bovine serum albumin (Sigma, St. Louis, Mo.) and incubated with specific primary antibodies followed by the incubation with HRP-conjugated anti-mouse or anti-rabbit secondary antibodies (1:5000 dilution, Cell Signaling Inc.). All primary antibodies were purchased from Cell Signaling Inc, except the antibodies against β-tubulin (LI-COR bioscience). Positive signals on the membrane blots were detected using the Amersham's enhanced chemiluminescence Western Blotting Prime Detection reagents (GE Healthcare Lifescience, Pittsburgh, Pa.). Images of these luminescence signals on the membrane blots were captured using the LI-COR Odyssey Fc Image system (Lincoln, Nebr.). The same membrane blot was stripped and re-blotted with another antibody as described in the GE WB ECL-prime-detection protocol (GE healthcare Lifescience, Pittsburgh, Pa.). Protein band densities in the Western blots were determined using the NIH ImageJ software and then normalized by β-tubulin or ACTB protein level in each sample. Data are presented as mean±SEM of 3-5 samples per group.

In a further test the test system is G6pc. Kind of test: QRT-PCR of basal G6pc expression in AML-12 cells. As to the method: For RNA analysis of basal G6pc expression (without the presence of diabetic stimuli: 8-CPT/Dex), amplified AML-12 and HepG2 cells were cultured on 24-well plates (0.5-2×10^5 cells/well) overnight in 10% FBS ITS- and Dex-free DMEM/F12 media and 10% FBS EMEM media, respectively. These cells were rinsed twice with PBS to remove residual sera. Then, the PBS-washed HepG2 cells were treated without or with insulin or Compound #43 in serum-free EMEM media for 40 hr. In some experiments, the PBS-washed AML-12 cells were incubated without or with Compound #43 or other selenium compounds in serum-free DMEM/F12 media for 24 hours. In other experiments, amplified AML-12 cells were pretreated without or with Compound #43 (150 or 300 ppb) in 10% FBS but ITS/Dex-free DMEM/F12 media for 24 hr. After 24 hr treatment, AML-12 cells were washed twice with PBS (to remove any residual serum in the culture) and then treated with insulin, Compound #43 or both, in the serum-free DMEM/Dex media for 6 hr.
Total RNA from saline- or selenium compound-treated Lepr^db/db mice was isolated using a Qiagen RNAeasy RNA isolation kit according to the Manufacturer's protocol. Total RNA from cultured cells was isolated using Trizol (Invitrogen) according to the manufacturer's protocol, and then incubated with DNase I to remove any potential contaminating genomic DNA. RNA samples were subjected to real-time PCR (QRT-PCR) analysis using Applied-Bioscience's RT kit and predesigned Taqman probes (Invitrogen), as described previously (Lan et al EMBO J 2003). Data were normalized by Actin B (Actb) mRNA levels in each sample, and are presented as mean±SEM of 3-5 samples.

For the next test, the system named is AML-12 cells. Kind of test: Glucose uptake assay in AML-12 cells. As to the method:
Equal numbers of amplified AML-12 cells were seeded on 96 well plates (1.5×10^5/well) and cultured in 10% FBS but ITS/Dex-free DMEM/F12 media overnight. Then these cells were washed twice with PBS (to remove any potential residual sera), and serum-starved in plain DMEM/F12 media overnight. These serum-starved AML-12 cells were treated without (basal), with insulin (10 and 100 nM) or Compound #43 (150, 300 and 600 ppb) in glucose/phenol red-free DMEM media at 37° C. for 1.5 hr. After treatment, media was removed and cells were washed once with PBS and incubated with 1 mM 2-deoxyglucose (2DG) at room temperature for 30 min. The 2DG-treated cells were then subjected to glucose uptake measurement using Promega's Glucose Uptake-Glo Assay kit, according to the manufacturer's protocol. Luminescent signals were recorded using a Bio-Tek luminometer.

Where [1] appears, read: 200 nM insulin or 600 ppb Compound #43, 5 minutes.
Where [2] appears, read: 200 nM insulin or 600 ppb Compound #43, 60 minutes.

For `C[Se]C[C@H]1O[C@@H](n2cnc3c(N)ncnc32)C(OC(C)=O)C1OC(C)=O` (stereo partly drawn) [Compound #43, Adenosine, 5′-Se-methyl-5′-selino-, 2′,3′-diacetate], in the test with Insrβ/Pdk1/Akt/AS160 (setting [1]), the “pInsrβ at Y1146” value is “significant increase of pInsrβ at Y1146” and the “phosphorylated Akt protein levels” value is reported as “did not cause a significant increase of phosphorylated Akt protein levels”. Also, in the test on Insrβ/Pdk1/Akt/AS160 (setting [2]), the “phosphorylated Akt protein levels” value is “robust increased of phosphorylated Akt proteins levels”. For the same compound, the pInsrβ levels entry in the test on Insrβ/Pdk1/Akt/AS160 is given as “decrease in pInsrβ levels”. Also, in the test on Insrβ/Pdk1/Akt/AS160 (600 ppb alone, 5 minutes), the “phosphorylated AS160 and total AS160 protein levels” value is “did not affect the protein levels of phosphorylated AS160 and total AS160”. The “increase in phosphorylated AS160 at S588” value in the test on Insrβ/Pdk1/Akt/AS160 (600 ppb, 60 minutes) is listed as “about 6 fold”. Also, in the test with Insrβ/Pdk1/Akt/AS160 (co-treatment insulin 200 nM and Compound #43 600 ppb, 5 minutes), the pInsrβ protein levels entry is “tended to increase pInsrβ protein levels”. Besides, the “phosphorylated AS160 protein levels” value in the test on Insrβ/Pdk1/Akt/AS160 (co-treatment insulin and Compound #43, 5 and 60 minutes) is on record as “significant increase of phosphorylated AS160 protein levels”. Moreover, in the test on Insrβ/Pdk1/Akt/AS160 (co-treatment insulin and Compound #43, both tested time points), the pAkt protein levels result is given as “significant increase of pAkt protein levels”. Also, the “effect on G6pc expression” value with G6pc (150 and 300 ppb, 24 hr pretreatment then 6 hr retreatment (FIG. 10C)) is “significant decrease of G6pc expression with the decrease levels comparable to 10 nM insulin”. Further, the “decrease of G6pc expression vs Control” value with G6pc (300 ppb selenium (3.8 μM of each compound), serum-free, 24 hr (FIG. 10A)) is given as ~60%. The “decrease in G6pc mRNA levels vs either agent alone” value in the test with G6pc (pretreatment then co-treatment with 10 nM insulin, 6 hr (FIG. 10C)) was “more pronounced”. Further, in the test with AML-12 cells (150, 300 and 600 ppb, 1.5 hr (FIG. 17)), the “effect on glucose uptake” value is given as “significant increase of glucose uptake”. The “extent of increased glucose uptake” value with AML-12 cells (600 ppb, 1.5 hr) is reported as “comparable to 100 nM insulin”. For the same compound, in the test with AML-12 cells (serum-free), the “time to stimulate glucose uptake” value is given as “less than 1.5 hr”.
For “insulin: insulin purchased from Sigma, positive control”, the “pInsrβ at Y1146” value in the test on Insrβ/Pdk1/Akt/AS160 (setting [1]) was “significant increase of pInsrβ at Y1146”. Also, the “phosphorylated Akt protein levels” value in the test with Insrβ/Pdk1/Akt/AS160 (setting [1]) is given as “significant increase of phosphorylated Akt”; in the test on Insrβ/Pdk1/Akt/AS160 (setting [2]) it was “not observed”. Besides, the pInsrβ levels entry in the test on Insrβ/Pdk1/Akt/AS160 is reported as “decrease in pInsrβ levels”. For the same compound, in the test with Insrβ/Pdk1/Akt/AS160 (200 nM insulin, 5 min), the “increase in phosphorylation of AS160 at S588” value was “about 2 fold”. The “phosphorylated AS160” value with Insrβ/Pdk1/Akt/AS160 (200 nM insulin, 60 minutes) is listed as “no obvious increase in phosphorylated AS160”. In addition, in the test on G6pc (10 nM insulin, serum-free, 6 hr (FIG. 10C)), the “decrease of G6pc mRNA levels vs Control” value was “about 65%”. Besides, the “effect on glucose uptake” value in the test on AML-12 cells (10 nM insulin, 1.5 hr) is on record as “did not enhance the glucose uptake”; with AML-12 cells (100 nM insulin, 1.5 hr), “significant increase of glucose uptake”.
